From patent US10899758B2, “Inhibitors of the menin-MLL interaction” (Vitae Pharmaceuticals, LLC, priority 2016, dated 2021) come the findings set out here.

Where two headings read alike, the source gives them in different places.

Assay [1] has as its system human acute monocytic leukemia cell line MV-4-11. Briefly: Assay 2 (Cell Proliferation Assay), ATP quantitation (CellTiter-Glo). Type of assay: cell-based. The note with it: MV-4-11 cells, read-out: Assay 2 (EC50, inhibition of cell proliferation). The method in brief: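 Cells (1.67×10^4/well, 10% FBS medium) incubated ±compound 72 h at 37 °C, 5% CO2; HL-60 served as toxicity control. ATP read by CellTiter-Glo luminescence; % inhibition scaled between DMSO and a potent menin inhibitor at ≥100×LD50.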

The target in assay [2] is T1, menin/MLL binding (biotinylated wild-type or mutated menin and MLL-AF9 fusion protein) (Homo sapiens, UniProt O00255).
T1 construct: biotinylated (1) wild-type menin or (2) mutated menin (described in Nature (2012) Vol. 482, pp. 542-548); fused on or other part: Biotin attached chemically (Sulfo-NHS-Biotin); no fused second protein is printed for menin
T1 sequence (O00255 1-459 limits assumed): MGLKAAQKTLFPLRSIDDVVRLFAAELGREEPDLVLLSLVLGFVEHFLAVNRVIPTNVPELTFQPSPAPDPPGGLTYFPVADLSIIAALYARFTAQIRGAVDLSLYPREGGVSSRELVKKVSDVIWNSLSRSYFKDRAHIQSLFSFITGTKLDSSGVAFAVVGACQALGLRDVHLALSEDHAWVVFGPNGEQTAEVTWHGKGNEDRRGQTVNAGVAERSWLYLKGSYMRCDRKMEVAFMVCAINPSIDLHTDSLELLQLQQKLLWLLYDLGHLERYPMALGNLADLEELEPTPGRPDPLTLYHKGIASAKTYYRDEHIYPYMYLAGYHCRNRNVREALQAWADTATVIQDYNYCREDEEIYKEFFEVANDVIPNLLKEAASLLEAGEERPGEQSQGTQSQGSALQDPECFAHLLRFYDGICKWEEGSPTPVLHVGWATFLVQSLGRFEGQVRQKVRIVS
Briefly: Assay 1 (Binding Assay): AlphaLISA menin/MLL binding. Particulars: 5 nM biotinylated menin, MLL-AF9-FLAG lysate. The method in brief: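 Biotinylated E. coli-expressed menin (wild-type or mutant), 5 nM, incubated 30 min RT with compound and HEK293 lysate of MLL1-1,396–AF9-FLAG in pH 7.4 Tris buffer, 5% DMSO, 1 mM DTT. Anti-FLAG acceptor and streptavidin donor beads added, 60 min RT, AlphaLISA signal read. IC50 from four-parameter fit of % inhibition.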
Background: Bead proximity is the source of the signal in Alpha formats.

`Cc1c(CN2CCC(c3cn(-c4ccc(F)cc4C(=O)N(C)C(C)C)c4cncnc34)CC2)ccc2[nH]c(C#N)cc12` [Example 63, 2-(7-(1-((2-cyano-4-methyl-1H-indol-5-yl)methyl)piperidin-4-yl)-5H-pyrrolo[3,2-d]pyrimidin-5-yl)-5-fluoro-N-isopropyl-N-methylbenzamide]: the EC50 in assay [1] (Homo sapiens, MV4-11, 72 h) was less than 100 nM. Further, the half-maximal inhibitory concentration (IC50) (commonly the concentration that gives 50% inhibition) in assay [2] was less than 100 nM.
Turning to `CC(C)N(C)C(=O)c1cc(F)ccc1-n1cc(C2CCC(N(C)C)CC2)c2ccncc21` (single isomer, unassigned) [Example 54A, 2-(3-(4-(dimethylamino)cyclohexyl)-1H-pyrrolo[2,3-c]pyridin-1-yl)-5-fluoro-N-isopropyl-N-methylbenzamide], in assay [1] (72 h), the EC50 was not below 1000 nM. The IC50 in assay [2] was 100 to 1000 nM.
Consider `CC(C)N(C)C(=O)c1cc(F)ccc1-n1cc(C2CCN(Cc3ccc4c(c3)[nH]c(=O)n4CCO)C2)c2ccncc21` (stereo not drawn) [Example 123, 5-fluoro-2-(3-(1-((1-(2-hydroxyethyl)-2-oxo-2,3-dihydro-1H-benzo[d]imidazol-5-yl)methyl)pyrrolidin-3-yl)-1H-pyrrolo[2,3-c]pyridin-1-yl)-N-isopropyl-N-methylbenzamide], for which the EC50 in assay [1] (Homo sapiens, MV4-11, 72 h) was less than 100 nM. Further, the IC50 in assay [2] is less than 100 nM.
Regarding `CCN(C(=O)c1cc(F)ccc1-n1cc(C2CCCN(Cc3ccc4[nH]c(=O)[nH]c4c3)C2)c2ccncc21)C(C)C` (stereo not drawn) [Example 47, N-ethyl-5-fluoro-N-isopropyl-2-(3-(1-((2-oxo-2,3-dihydro-1H-benzo[d]imidazol-5-yl)methyl)piperidin-3-yl)-1H-pyrrolo[2,3-c]pyridin-1-yl)benzamide], the EC50 in assay [1] (Homo sapiens, MV4-11, 72 h) is less than 100 nM. In assay [2], this compound gave a half-maximal inhibitory concentration (IC50) of less than 100 nM.
Regarding `CC(C)N(C)C(=O)c1cc(F)ccc1-n1cc(C2CCN(CCc3ccc(S(C)(=O)=O)cc3)CC2)c2ccncc21` [Example 24, 5-fluoro-N-isopropyl-N-methyl-2-(3-(1-(4-(methylsulfonyl)phenethyl)piperidin-4-yl)-1H-pyrrolo[2,3-c]pyridin-1-yl)benzamide], in assay [1] (Homo sapiens, MV4-11, 72 h), the EC50 was in the range of 100 to 1000 nM. The compound also displayed an IC50 in assay [2] of less than 100 nM.
In the case of `Cc1nnc(C2CC2)n1-c1cc(F)ccc1-n1cc(C2CCCN(Cc3ccc4[nH]c(=O)[nH]c4c3)C2)c2ccncc21` (stereo not drawn) [Example 121, 5-((3-(1-(2-(3-cyclopropyl-5-methyl-4H-1,2,4-triazol-4-yl)-4-fluorophenyl)-1H-pyrrolo[2,3-c]pyridin-3-yl)piperidin-1-yl)methyl)-1H-benzo[d]imidazol-2(3H)-one], the EC50 in assay [1] (Homo sapiens, MV4-11, 72 h) was less than 100 nM. Besides, in assay [2], the 50% inhibitory concentration (IC50) is less than 100 nM.
With `Cc1c(CN2CCC(c3cn(-c4ccc(F)cc4CC(C)C)c4cnccc34)CC2)ccc2[nH]c(C#N)cc12` [Example 42, 5-((4-(1-(4-fluoro-2-isobutylphenyl)-1H-pyrrolo[2,3-c]pyridin-3-yl)piperidin-1-yl)methyl)-4-methyl-1H-indole-2-carbonitrile], the EC50 in assay [1] (Homo sapiens, MV4-11, 72 h) lay within 100 to 1000 nM. This compound also had a 50% inhibitory concentration (IC50) in assay [2] of less than 100 nM.
On the same counts, the results for `CC(C)N(C(=O)c1cc(F)ccc1-n1cc(C2CCN(Cc3ccc4c(c3)[nH]c(=O)n4CCO)C2)c2ccncc21)C(C)C` (stereo not drawn) [Example 126, 5-fluoro-2-(3-(1-((1-(2-hydroxyethyl)-2-oxo-2,3-dihydro-1H-benzo[d]imidazol-5-yl)methyl)pyrrolidin-3-yl)-1H-pyrrolo[2,3-c]pyridin-1-yl)-N,N-diisopropylbenzamide] are less than 100 nM and less than 100 nM.
On the same counts, the results for `CC(C)N(C)C(=O)c1cc(F)ccc1-n1cc(C2CCNC(Cc3ccccc3)C2)c2ccncc21` (stereo not drawn) [Example 31, 2-(3-(2-benzylpiperidin-4-yl)-1H-pyrrolo[2,3-c]pyridin-1-yl)-5-fluoro-N-isopropyl-N-methylbenzamide] are less than 100 nM and less than 100 nM.
The corresponding values for `CC(C)N(C(=O)c1cc(F)ccc1-n1cc(C2CN(C[C@H]3CC[C@H](NS(C)(=O)=O)CC3)C2)c2ccncc21)C(C)C` [Example 138, 5-fluoro-N,N-diisopropyl-2-(3-(1-(((1r,4r)-4-(methylsulfonamido)cyclohexyl)methyl)azetidin-3-yl)-1H-pyrrolo[2,3-c]pyridin-1-yl)benzamide] are 100 to 1000 nM and less than 100 nM.
For the compound `CC(C)N(C)C(=O)c1cc(F)ccc1-n1cc([C@H]2CC[C@H](N3CCOCC3)CC2)c2ccncc21` [Example 117, 5-fluoro-N-isopropyl-N-methyl-2-(3-(trans-4-morpholinocyclohexyl)-1H-pyrrolo[2,3-c]pyridin-1-yl)benzamide], in assay [1] (Homo sapiens, MV4-11, 72 h), the EC50 is not below 1000 nM. This compound also returned an IC50 in assay [2] of less than 100 nM.
On the same counts, the results for `CC(C)N(C)C(=O)c1cc(F)ccc1-n1cc(C2CCN(C[C@H]3CC[C@H](NS(C)(=O)=O)CC3)CC2)c2ccncc21` [Example 21, 5-fluoro-N-isopropyl-N-methyl-2-(3-(1-((trans-4-(methylsulfonamido)cyclohexyl)methyl)piperidin-4-yl)-1H-pyrrolo[2,3-c]pyridin-1-yl)benzamide] are 100 to 1000 nM and less than 100 nM.
Regarding `CCN(C(=O)c1cc(F)ccc1-n1cc(C2CCCN(Cc3ccc4c(c3)[nH]c(=O)n4CCO)C2)c2ccncc21)C(C)C` (stereo not drawn) [Example 49, N-ethyl-5-fluoro-2-(3-(1-((1-(2-hydroxyethyl)-2-oxo-2,3-dihydro-1H-benzo[d]imidazol-5-yl)methyl)piperidin-3-yl)-1H-pyrrolo[2,3-c]pyridin-1-yl)-N-isopropylbenzamide], the EC50 in assay [1] (Homo sapiens, MV4-11, 72 h) is less than 100 nM. Further, the half-inhibitory concentration (IC50) in assay [2] is less than 100 nM.
Consider `CC(C)N(C)C(=O)c1cc(F)ccc1-n1cc([C@H]2CC[C@H](N)CC2)c2ccncc21` [Example 57, 2-(3-(trans-4-aminocyclohexyl)-1H-pyrrolo[2,3-c]pyridin-1-yl)-5-fluoro-N-isopropyl-N-methylbenzamide], for which, in assay [1] (Homo sapiens, MV4-11, 72 h), the EC50 is not below 1000 nM. This compound came in with a concentration for half-maximal inhibition (IC50) in assay [2] of less than 100 nM.
The corresponding values for `CC(c1ccccc1)N1CCC(c2cn(-c3ccc(F)cc3C(=O)N(C)C(C)C)c3cnccc23)CC1` (stereo not drawn) [Example 30, 5-fluoro-N-isopropyl-N-methyl-2-(3-(1-(1-phenylethyl)piperidin-4-yl)-1H-pyrrolo[2,3-c]pyridin-1-yl)benzamide] are 100 to 1000 nM and less than 100 nM.
Regarding `Cc1c(CN2CCC(c3cn(-c4ccc(F)cc4)c4cnccc34)CC2)ccc2[nH]c(C#N)cc12` [Example 37, 5-((4-(1-(4-fluorophenyl)-1H-pyrrolo[2,3-c]pyridin-3-yl)piperidin-1-yl)methyl)-4-methyl-1H-indole-2-carbonitrile], the EC50 in assay [1] (Homo sapiens, MV4-11, 72 h) is 100 to 1000 nM. The same compound had an IC50 in assay [2] of less than 100 nM.
On the same counts, the results for `CC(C)N(C)C(=O)c1cc(F)ccc1-c1cn(C2CCCN(Cc3ccc4[nH]c(=O)[nH]c4c3)C2)c2ccncc12` (stereo not drawn) [Example 74, 5-fluoro-N-isopropyl-N-methyl-2-(1-(1-((2-oxo-2,3-dihydro-1H-benzo[d]imidazol-5-yl)methyl)piperidin-3-yl)-1H-pyrrolo[3,2-c]pyridin-3-yl)benzamide] are not below 1000 nM and less than 100 nM.
For the compound `CC(C)N(C)C(=O)c1cc(F)ccc1-n1cc([C@H]2CC[C@H](N3CCCCC3)CC2)c2ccncc21` [Example 106, 5-fluoro-N-isopropyl-N-methyl-2-(3-(trans-4-(piperidin-1-yl)cyclohexyl)-1H-pyrrolo[2,3-c]pyridin-1-yl)benzamide], the EC50 in assay [1] (Homo sapiens, MV4-11, 72 h) was 100 to 1000 nM. The compound also returned a half-maximal inhibitory concentration (IC50) in assay [2] of less than 100 nM.
On the same counts, the results for `CC(C)N(C)C(=O)c1cc(F)ccc1-n1cc([C@H]2CC[C@@H](N3CCC(O)CC3)CC2)c2ccncc21` [Example 109, 5-fluoro-2-(3-(cis-4-(4-hydroxypiperidin-1-yl)cyclohexyl)-1H-pyrrolo[2,3-c]pyridin-1-yl)-N-isopropyl-N-methylbenzamide] are 100 to 1000 nM and less than 100 nM.
Consider `CC(C)N(C)C(=O)c1cc(F)ccc1-n1cc(C2CCN(C[C@H]3CC[C@@H](O)CC3)CC2)c2ccncc21` [Example 27A, cis-(5-fluoro-2-(3-(1-((4-hydroxycyclohexyl)methyl)piperidin-4-yl)-1H-pyrrolo[2,3-c]pyridin-1-yl)-N-isopropyl-N-methylbenzamide)], for which, in assay [1] (Homo sapiens, MV4-11, 72 h), the EC50 was not below 1000 nM. The same compound came in with an IC50 in assay [2] of less than 100 nM.
Turning to `CC(C)N(C)C(=O)c1cc(F)ccc1-n1cc(C2CCN(Cc3ccc4[nH]c(C#N)cc4c3)CC2)c2ccncc21` [Example 7, 2-(3-(1-((2-cyano-1H-indol-5-yl)methyl)piperidin-4-yl)-1H-pyrrolo[2,3-c]pyridin-1-yl)-5-fluoro-N-isopropyl-N-methylbenzamide], the EC50 in assay [1] (Homo sapiens, MV4-11, 72 h) is less than 100 nM. In assay [2], this compound displayed a 50% inhibitory concentration (IC50) of less than 100 nM.
